Test results: patent US20210186905A1, “ENHANCING T-CELL FUNCTION AND TREATING A T-CELL DYSFUNCTIONAL DISORDER WITH A COMBINATION OF AN LSD INHIBITOR AND A PD-1 BINDING ANTAGONIST” (EpiAxis Therapeutic Pty Ltd, priority 2017, published 2021)
Where a name gives a salt, the structure may show the parent alone.

Experiments:
[1] = tested on: F4/80+ macrophages (CD38, CD206, LSD1p); test: Immunofluorescence assay of TME macrophage populations (M1/M2 profiles); type: in vivo, mouse
Description: FIG. 4 is a graphical representation showing that dual epigenetic-immunotherapy re-educates and re-programs innate macrophage repertoire. A. Immunofluorescence microscopy was performed on F4/80+MØ cells fixed and probed with a M1 panel consisting of anti-CD38 and ? odies and DAPI. […] B. Immunofluorescence microscopy was performed on F4/80+MØ cells fixed and probed with a M2 panel consisting of anti-CD206 and anti LSD1p antibodies and DAPI.
The effect of these treatment modalities was also investigated on TME macrophage populations by immunofluorescence assay (IFA). In particular, the M1 (CD38 expression) and M2 profiles (CD206 expression) were examined, along with LSD1p expression.
A total of 2×10^5 cells were injected per mouse into mammary gland in 50 μL of phosphate buffered saline (PBS). Treatments were started on mice after 15 days post-inoculation of 4T1 cells. […] Tumors were measured using calipers and the tumor volumes (mm3) were calculated using the formula (length×width2)/2. ? arvested cells from primary tumors where then cytospun ? -treated with poly-1-lysine and fixed then stored in PBS for IFA Microscopy Analysis. […] Digital images were analysed using ImageJ software (ImageJ, NIH, Bethesda, Md., USA) to determine the either the Total Nuclear Fluorescent Intensity (TNFI), the Total Cytoplasmic Fluorescent Intensity (TCFI) or total Fluorescent Intensity (TFI).

[2] = tested on: LSD1p, CSV and ALDH1A; test: Immunofluorescence of FFPE tissue, metastatic lesions in lung or liver of 4T1 mice; type: in vivo, mouse
Description: FIG. 3 is a photographic and graphical representation showing that dual epigenetic-immunotherapy inhibits metastatic progression in 4T1 Mouse model. A. 4T1 Treatment FFPE from each treatment group (Group A=Control, Group C: PD1 (10 mg/kg), Group D: Phenelzine (40 mg/kg), Group F: PD1+Phenelzine) and for each target organ (Lung and Liver) was processed for 3D high resolution microscopy using the BondRX. FFPE tissues were fixed and Immunofluorescence microscopy was performed probing with rabbit LSD1(S111p); mouse anti CSV and goat anti […] and visualized with a donkey anti-rabbit AF 488, anti-mouse 568 and anti-goat 633. Cover slips were mounted on glass microscope slides with ProLong Diamond Antifade reagent (Life Technologies). Protein targets were localized by confocal laser scanning microscopy. Single 0.5 μm sections were obtained using a Leica DMI8 microscope using 100× oil immersion lens running LAX software. The final image was obtained by averaging four sequential images of the same section. Digital images were analyzed using ImageJ software (ImageJ, NIH, Bethesda, Md., USA) to determine the either the Total Nuclear Fluorescent Intensity (TNFI), the Total Cytoplasmic Fluorescent Intensity (TCFI) or total Fluorescent Intensity (TFI). N=40 cells were counted. B. Graphs for both organs are presented here. Graphs represent the TNFI values for LSD1, ALDH1A and TCFI for CSV measured using ImageJ to select the nucleus minus background. Representative images for the Lung dataset are shown.
The expression of a mesenchymal, stem-like biomarker panel was examined in metastatic sites in a 4T1 mouse model treated with vehicle control (Group A), anti-PD1 antibody (10 mg/kg) (Group C), phenelzine sulfate (40 mg/kg) (Group D) or a combination of both (Group F). The present inventors examined the presence of metastatic lesions in the lung or liver and measured the immunofluorescence (IF) of formalin-fixed paraffin-embedded (FFPE) tissue examining the IF intensity of LSD1p, CSV and ALDH1A.
4T1 Treatment FFPE from each treatment group primary tumor biopsies were processed in the BondRX for IFA staining using the instrument protocol: ER2 for 20 mins at 100° C. with Epitope Retrieval Solution 2 which is a pH-9 EDTA based retrieval solution followed by probing with rabbit anti LSD1 (S111p); mouse anti CSV and goat anti ALDH1A and visualized with a donkey anti-rabbit AF 488, anti-mouse 568 and anti-goat 633 or anti rat 633. Cover slips were mounted on glass microscope slides with ProLong Diamond Antifade reagent (Life Technologies). Protein targets were localized by confocal laser scanning microscopy. Single 0.5 μm sections were obtained using a Leica DMI8 microscope using 100× oil immersion lens running LAX software. The final image was obtained by averaging four sequential images of the same section. Digital images were analysed using ImageJ software (ImageJ, NIH, Bethesda, Md., USA) to determine the either the Total Nuclear Fluorescent Intensity (TNFI), the Total Cytoplasmic Fluorescent Intensity (TCFI) or total Fluorescent Intensity (TFI).

## NNCCc1ccccc1 (racemic) [phenelzine sulfate, (±)-2-phenylethylhydrazine]
[1]
  M1 phenotype (CD38 expression and LSD1p inhibition): most strongly enhanced
  tumor associated M2 profile (CD206 and LSD1p expression): re-programmed and inhibited
[2]; liver lesions
  ALDH1A expression: strongly inhibited
  CSV expression: strongly inhibited
  LSD1p IF intensity: strongly inhibited
[2]; lung lesions
  ALDH1A expression: strongly inhibited
  CSV expression: strongly inhibited
  LSD1p IF intensity: strongly inhibited
